From patent publication US20160113932A1, “TREATMENT OF CANCERS USING PI3 KINASE ISOFORM MODULATORS” (INFINITY PHARMACEUTICALS, INC., priority 2013, published 2016)

How the values were obtained:
Assay type in all cases: biochemical
Conditions in all cases: In Vitro
[1] = molecular target: T1, PI3K γ (Homo sapiens, UniProt P48736); test: PI3K lipid kinase inhibition assay (TLC or HTRF), PI3K γ
T1 construct: purchased Sigma
Excerpt: (§1) Other commercial kits or systems for assaying PI3K activities are available. […] An exemplary system is PI 3-Kinase (human) HTRF™ Assay from Upstate.

[2] = molecular target: PI3K δ (Homo sapiens, UniProt O00329); test: PI3K lipid kinase inhibition assay (TLC or HTRF), PI3K δ; design: purchased Upstate
Sequence of PI3K δ (O00329 whole entry): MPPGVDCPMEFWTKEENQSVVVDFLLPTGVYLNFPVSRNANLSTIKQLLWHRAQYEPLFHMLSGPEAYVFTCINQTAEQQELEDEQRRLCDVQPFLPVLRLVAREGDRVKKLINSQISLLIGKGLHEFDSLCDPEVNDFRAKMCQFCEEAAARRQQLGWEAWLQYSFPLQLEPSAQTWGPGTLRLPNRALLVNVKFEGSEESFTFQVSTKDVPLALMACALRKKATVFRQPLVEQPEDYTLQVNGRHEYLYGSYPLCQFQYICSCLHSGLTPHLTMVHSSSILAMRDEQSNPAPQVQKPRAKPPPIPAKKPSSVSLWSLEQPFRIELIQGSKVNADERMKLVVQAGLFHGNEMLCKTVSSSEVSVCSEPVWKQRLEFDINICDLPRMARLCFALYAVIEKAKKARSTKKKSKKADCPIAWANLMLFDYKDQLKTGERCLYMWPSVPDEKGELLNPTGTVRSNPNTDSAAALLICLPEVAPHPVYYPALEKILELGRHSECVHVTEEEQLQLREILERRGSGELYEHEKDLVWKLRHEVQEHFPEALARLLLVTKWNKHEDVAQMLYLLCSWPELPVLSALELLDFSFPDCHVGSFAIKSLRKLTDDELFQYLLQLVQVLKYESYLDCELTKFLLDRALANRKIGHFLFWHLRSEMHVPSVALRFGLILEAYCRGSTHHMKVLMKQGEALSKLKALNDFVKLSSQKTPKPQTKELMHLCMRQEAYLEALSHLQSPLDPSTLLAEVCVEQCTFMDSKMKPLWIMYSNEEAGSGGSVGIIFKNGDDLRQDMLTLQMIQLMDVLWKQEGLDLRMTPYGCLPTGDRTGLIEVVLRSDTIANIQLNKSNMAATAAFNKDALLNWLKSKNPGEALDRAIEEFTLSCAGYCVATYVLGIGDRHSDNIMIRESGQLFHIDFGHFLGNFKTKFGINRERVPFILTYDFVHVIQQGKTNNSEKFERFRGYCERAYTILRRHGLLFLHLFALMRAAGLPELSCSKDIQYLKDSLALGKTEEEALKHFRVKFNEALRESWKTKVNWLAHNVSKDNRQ
Sequence of PI3K δ (P27986 whole entry partner): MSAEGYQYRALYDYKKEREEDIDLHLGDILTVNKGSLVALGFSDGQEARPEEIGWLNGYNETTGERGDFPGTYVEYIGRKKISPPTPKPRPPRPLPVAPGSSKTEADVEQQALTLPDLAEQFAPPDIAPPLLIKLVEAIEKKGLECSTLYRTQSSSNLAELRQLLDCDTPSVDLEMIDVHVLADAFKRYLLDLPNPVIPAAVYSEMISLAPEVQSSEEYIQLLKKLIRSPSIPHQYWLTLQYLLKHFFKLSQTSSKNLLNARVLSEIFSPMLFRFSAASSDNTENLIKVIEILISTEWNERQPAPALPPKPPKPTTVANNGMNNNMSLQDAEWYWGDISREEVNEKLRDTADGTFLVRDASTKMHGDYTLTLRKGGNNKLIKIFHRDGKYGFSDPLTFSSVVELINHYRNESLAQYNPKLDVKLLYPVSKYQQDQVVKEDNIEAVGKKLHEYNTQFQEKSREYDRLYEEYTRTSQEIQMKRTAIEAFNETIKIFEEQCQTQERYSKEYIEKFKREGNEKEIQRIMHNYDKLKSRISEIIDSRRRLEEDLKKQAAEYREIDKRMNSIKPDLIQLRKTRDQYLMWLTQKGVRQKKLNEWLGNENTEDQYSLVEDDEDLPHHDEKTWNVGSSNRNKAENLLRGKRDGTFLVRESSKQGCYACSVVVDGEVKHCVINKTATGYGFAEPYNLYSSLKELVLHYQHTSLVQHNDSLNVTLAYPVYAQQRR
Excerpt: as §1

[3] = molecular target: T2, PI3K β (Homo sapiens, UniProt P42338); test: PI3K lipid kinase inhibition assay (TLC or HTRF), PI3K β
T2 construct: purchased Upstate
T2 sequence (P42338 whole entry): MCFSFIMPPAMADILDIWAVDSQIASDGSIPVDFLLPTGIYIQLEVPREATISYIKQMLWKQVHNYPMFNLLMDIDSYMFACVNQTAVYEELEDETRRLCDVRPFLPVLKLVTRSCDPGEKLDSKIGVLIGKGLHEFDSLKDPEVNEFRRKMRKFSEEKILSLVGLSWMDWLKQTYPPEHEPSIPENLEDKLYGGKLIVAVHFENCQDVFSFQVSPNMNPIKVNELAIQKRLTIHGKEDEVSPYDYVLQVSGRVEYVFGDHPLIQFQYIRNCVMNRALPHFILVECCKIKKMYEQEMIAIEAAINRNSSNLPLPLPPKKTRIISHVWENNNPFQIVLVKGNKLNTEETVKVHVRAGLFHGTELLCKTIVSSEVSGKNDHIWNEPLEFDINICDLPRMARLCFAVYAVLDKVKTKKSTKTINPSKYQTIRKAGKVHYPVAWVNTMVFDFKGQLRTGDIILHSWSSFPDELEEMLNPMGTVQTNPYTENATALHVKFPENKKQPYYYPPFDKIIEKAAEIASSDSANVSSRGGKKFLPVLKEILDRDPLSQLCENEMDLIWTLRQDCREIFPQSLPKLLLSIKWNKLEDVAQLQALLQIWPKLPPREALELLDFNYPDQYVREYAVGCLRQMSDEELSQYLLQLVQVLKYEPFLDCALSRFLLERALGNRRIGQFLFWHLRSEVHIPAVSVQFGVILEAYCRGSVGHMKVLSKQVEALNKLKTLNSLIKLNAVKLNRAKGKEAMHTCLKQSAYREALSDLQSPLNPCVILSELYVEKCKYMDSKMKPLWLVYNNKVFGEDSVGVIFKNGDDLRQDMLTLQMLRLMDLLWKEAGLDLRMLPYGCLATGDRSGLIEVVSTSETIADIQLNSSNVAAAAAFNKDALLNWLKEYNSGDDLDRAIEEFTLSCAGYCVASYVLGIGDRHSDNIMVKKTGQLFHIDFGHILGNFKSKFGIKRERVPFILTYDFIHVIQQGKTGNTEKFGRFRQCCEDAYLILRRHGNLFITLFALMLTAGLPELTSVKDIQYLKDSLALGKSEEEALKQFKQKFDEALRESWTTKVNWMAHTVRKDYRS
T2 sequence (P27986 whole entry partner): as the sequence (P27986 whole entry partner) above
Excerpt: as §1

T1 sequence (P48736 whole entry): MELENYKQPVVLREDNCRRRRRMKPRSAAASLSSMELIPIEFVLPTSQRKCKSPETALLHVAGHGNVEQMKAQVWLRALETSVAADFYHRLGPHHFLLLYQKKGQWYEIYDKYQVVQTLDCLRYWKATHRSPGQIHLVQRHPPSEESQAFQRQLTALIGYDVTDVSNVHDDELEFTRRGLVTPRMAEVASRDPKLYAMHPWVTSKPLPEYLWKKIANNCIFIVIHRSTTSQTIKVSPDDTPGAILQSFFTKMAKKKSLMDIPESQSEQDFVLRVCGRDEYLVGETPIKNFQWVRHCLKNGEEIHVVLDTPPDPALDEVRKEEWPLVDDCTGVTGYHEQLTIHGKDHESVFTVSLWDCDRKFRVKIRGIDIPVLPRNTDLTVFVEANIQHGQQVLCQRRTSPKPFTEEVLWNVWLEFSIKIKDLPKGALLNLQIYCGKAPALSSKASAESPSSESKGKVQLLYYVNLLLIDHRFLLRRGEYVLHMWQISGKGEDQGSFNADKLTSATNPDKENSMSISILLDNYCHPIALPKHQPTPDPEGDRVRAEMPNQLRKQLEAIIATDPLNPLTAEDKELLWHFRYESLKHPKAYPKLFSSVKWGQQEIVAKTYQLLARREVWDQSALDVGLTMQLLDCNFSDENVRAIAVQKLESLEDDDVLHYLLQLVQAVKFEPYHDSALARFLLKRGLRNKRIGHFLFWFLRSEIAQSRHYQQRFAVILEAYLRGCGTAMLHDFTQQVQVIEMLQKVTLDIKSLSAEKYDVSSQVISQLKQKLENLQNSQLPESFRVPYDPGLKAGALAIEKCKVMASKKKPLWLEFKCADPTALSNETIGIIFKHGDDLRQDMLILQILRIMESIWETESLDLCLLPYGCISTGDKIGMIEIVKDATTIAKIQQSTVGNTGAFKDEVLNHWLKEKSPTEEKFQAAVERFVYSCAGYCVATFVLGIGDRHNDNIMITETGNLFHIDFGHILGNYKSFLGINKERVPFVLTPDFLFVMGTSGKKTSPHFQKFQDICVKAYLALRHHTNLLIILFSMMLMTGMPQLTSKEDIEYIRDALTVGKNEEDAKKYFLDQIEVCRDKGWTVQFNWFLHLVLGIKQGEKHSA

Row | IC50 [1] [nM] | IC50 [2] [nM] | Compound | IC50 [3] [nM]
1 |  | < 100 | Cc1cccc2cc(Cn3nc(-c4ccc(Cl)c(O)c4)c4c(N)ncnc43)n(C(C)C)c(=O)c12 [Compound 123] | 
2 |  | < 10000 | Cc1cccc2cc(Cn3nc(I)c4c(N)ncnc43)n(C(C)C)c(=O)c12 [Compound 129] | 

Second part, the compound before the results:

Row | Compound | IC50 [1] [nM] | IC50 [2] [nM] | IC50 [3] [nM]
3 | Cc1ccccc1-n1c(Cn2cnc3c(N)ncnc32)cc2cccc(C)c2c1=O [Compound 5] | > 10000 | < 10000 | 
4 | Cc1cccnc1-n1c(Cn2nc(-c3cccc(O)c3)c3c(N)ncnc32)cc2ccccc2c1=O [Compound 94] | < 10000 | < 1000 | 
5 | Cc1ccccc1-n1c(Cn2nc(I)c3c(N)ncnc32)cc2cccc(C)c2c1=O [Compound 104] | < 1000 |  | > 10000
6 | Cc1ccccc1-n1c(Cn2nc(-c3cc(O)cc(F)c3)c3c(N)ncnc32)cc2cccc(C)c2c1=O [Compound 113] |  |  | < 10000
7 | Cc1ccccc1-n1c(Cn2nc(-c3cccc(O)c3)c3c(N)nccc32)cc2cccc(C)c2c1=O [Compound 119] |  | < 100 | 
